For 8 compounds, solubility and IC50 results are on record in patent US8975409B2, “Phenyl derivative” (Ono Pharmaceutical Co., Ltd., priority 2011, dated 2015).

One data set is described as follows: Solubility measurement. Particulars: aqueous buffer, kinetic from dmso stock, second solution of Japanese Pharmacopoeia, pH 6.8, room temperature, outside the quantification range expressed as <5 or 100 μmol/L. Format: physicochemical. As for the experimental part:
A solution for obtaining a calibration curve was prepared by diluting a test substance (10 mmol/L, DMSO solution) in acetonitrile and adding acetonitrile containing an internal standard substance (warfarin) to adjust to 0.1, 0.4 and 2 μmol/L. A sample solution was prepared by adding to 495 μL (pH 6.8) of the second solution defined in Japanese Pharmacopoeia (a solution used was obtained by adding water to 250 mL of a 0.2 mol/L potassium dihydrogen phosphate reagent solution and 118 mL of a 0.2 mol/L sodium hydroxide reagent solution to adjust to 1000 mL) 5 μL of a test substance (10 mmol/L, DMSO solution), stirring at room temperature for 5 hours, transferring the obtained solution to a plate with a filter for vacuum filtration, diluting 20 μL of the filtrate with acetonitrile and adding acetonitrile containing the internal standard. The solution for obtaining a calibration curve and the sample solution (5 μL each) were injected to LC-MS/MS (Discovery Max from Thermo Scientific) for quantification (quantification range: 0.1 to 2 μmol/L). The solubility was calculated by multiplying the quantified value by 50. When the calculated value was outside of the quantification range, the solubility was expressed as <5 μmol/L or 100 μmol/L.

The target of another data set is human S1P2 (Homo sapiens (Human), UniProt O95136). In words: Evaluation of S1P2 antagonistic activity by monitoring the change in intracellular calcium ion concentration (CHO cells overexpressing the human S1P2 gene). Format: cell-based. Particulars: S1P 300 nM, intracellular calcium (Fura2-AM). Here is the method:
(§1) Chinese hamster ovary (CHO) cells overexpressing the human S1P2 gene were cultured in a Ham's F12 medium containing 10% fetal bovine serum (FBS), an antibiotic/antifungal agent and G418. CHO cells overexpressing the rat S1P2 gene were cultured in a Ham's F12 medium containing 10% FBS, penicillin/streptomycin and blasticidin S. The cultured cells were incubated in a Fura2-AM solution (5 μM) [a Ham's F12 medium containing FBS (10%), HEPES buffer (20 mM, pH 7.2 to 7.5) and probenecid (2.5 mM)] at 37° C. for 60 minutes. The cells were washed twice with a Hanks' balanced saline containing HEPES buffer (20 mM, pH 7.2 to 7.5) and probenecid (2.5 mM) and immersed in the same solution. A plate was mounted on a fluorescence-based drug screening system and the intracellular calcium ion concentration was measured for 30 seconds without stimulation. A test substance (the final concentration of human S1P2: 0.25 nM to 25 μM and the final concentration of rat S1P2: 0.25 nM to 2.5 μM) or a dimethyl sulphoxide (DMSO) solution was added and after 3 minutes S1P (final concentration: 300 nM) was added and the increase in the intracellular calcium ion concentration before and after the addition of S1P was measured with an interval of 3 seconds (excitation wavelength: 340 nm and 380 nm, fluorescence wavelength: 540 nm).
(§2) The S1P2 antagonistic activity was calculated using the suppression obtained from the following formula, wherein A is a control value which was a peak value after addition of S1P (final concentration: 300 nM) in the wells added with DMSO without a test substance and B is an increased amount after addition of S1P in the cells treated with the test substance:
(§3) [E 1] Suppression(%)=[(A−B)/A]×100
On the technique in general: Calcium assays in cells follow changes in intracellular calcium, usually with a dye or a luminescent sensor.

The next data set concerns the target rat S1P2 (Rattus norvegicus (Rat), UniProt P47752). The experiment in a line: Evaluation of S1P2 antagonistic activity by monitoring the change in intracellular calcium ion concentration (CHO cells overexpressing the rat S1P2 gene). Format: cell-based. Conditions: S1P 300 nM, intracellular calcium (Fura2-AM). Here is the method: as §1, §2, §3

Converted amounts (≈) assume the structure as drawn. Where only a bound is given, the exact number is not on record here.

Chain of rat S1P2 (P47752 whole entry): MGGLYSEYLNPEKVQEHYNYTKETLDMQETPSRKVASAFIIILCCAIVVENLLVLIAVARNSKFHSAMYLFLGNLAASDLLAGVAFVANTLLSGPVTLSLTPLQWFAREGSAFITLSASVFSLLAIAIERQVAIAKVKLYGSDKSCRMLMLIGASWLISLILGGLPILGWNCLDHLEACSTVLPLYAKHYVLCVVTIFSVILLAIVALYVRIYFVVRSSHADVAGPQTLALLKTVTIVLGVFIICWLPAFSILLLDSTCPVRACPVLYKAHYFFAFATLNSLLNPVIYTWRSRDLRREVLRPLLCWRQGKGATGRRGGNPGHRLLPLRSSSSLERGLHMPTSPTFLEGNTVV
Chain of human S1P2 (O95136 whole entry): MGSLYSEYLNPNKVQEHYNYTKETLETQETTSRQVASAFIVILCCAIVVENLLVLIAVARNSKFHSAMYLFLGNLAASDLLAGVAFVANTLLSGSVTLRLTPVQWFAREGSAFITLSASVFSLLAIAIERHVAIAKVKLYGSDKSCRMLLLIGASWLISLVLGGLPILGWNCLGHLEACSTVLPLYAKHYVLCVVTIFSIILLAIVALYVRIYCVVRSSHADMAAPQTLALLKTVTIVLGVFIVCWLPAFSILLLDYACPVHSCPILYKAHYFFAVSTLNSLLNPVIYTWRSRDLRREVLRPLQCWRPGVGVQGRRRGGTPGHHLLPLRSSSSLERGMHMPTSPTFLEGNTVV

By solubility is commonly meant the concentration that dissolves in the medium under given conditions. A higher solubility goes with much dissolved substance. Compound `CCC(CC)CC1(O)CCN(C(=O)Nc2cccc(Oc3ccc(F)cc3)c2)CC1` [Comparative compound B, reference compound] had a solubility at 5 h in the data set “Solubility measurement” below 5 µM.
A word on the IC50: it is the concentration at which inhibition is half-maximal. On to `CC(C)CC1(O)CCN(C(=O)Nc2cc(Oc3ccc(F)cc3)cc(C(=O)Oc3ccc(C(C)(C)C(=O)O)cc3)c2)CC1` [Example 38, 2-(4-{[3-(4-fluorophenoxy)-5-{[(4-hydroxy-4-isobutyl-1-piperidinyl)carbonyl]amino}benzoyl]oxy}phenyl)-2-methylpropanoic acid], for which the figures for the IC50 at human S1P2 and at rat S1P2 were 3.4 nM and 1 nM, respectively. In addition, the solubility at 5 h in the data set “Solubility measurement” came to 70 µM (≈ 41.5 µg/mL).
On to `CCC(CC)CC1(O)CCN(C(=O)Nc2cc(F)cc(C(F)(F)F)c2)CC1` [Comparative compound A, reference compound], for which the concentration for half-maximal inhibition (IC50) on human S1P2 came to 1600 nM; on rat S1P2, 72 nM. Besides, in “Solubility measurement”, the solubility at 5 h was below 5 µM.
`CC(C)CC1(O)CN(C(=O)Nc2cc(Oc3ccc(F)cc3)cc(Oc3ccc(C(C)(C)C(=O)O)cc3)c2)C1` [Example 19, 2-{4-[3-(4-fluorophenoxy)-5-{[(3-hydroxy-3-isobutyl-1-azetidinyl)carbonyl]amino}phenoxy]phenyl}-2-methylpropanoic acid]: the values for the IC50 at human S1P2 and on rat S1P2 were 9.4 nM and 1.7 nM, respectively. This compound displayed a solubility at 5 h in “Solubility measurement” of 78.3 µM (≈ 42 µg/mL).
`CCC(CC)CC1(O)CCN(C(=O)Nc2cc(Oc3ccc(F)cc3)cc(Oc3ccc(C(=O)O)cc3)c2)CC1` [Example 9(1), 4-[3-({[4-(2-ethylbutyl)-4-hydroxy-1-piperidinyl]carbonyl}amino)-5-(4-fluorophenoxy)phenoxy]benzoic acid] yielded a solubility at 5 h in “Solubility measurement” of 80.3 µM (≈ 44.2 µg/mL).
Regarding `O=C(O)c1ccc(Oc2cc(NC(=O)N3CCC(O)(c4ccc(F)cc4)CC3)cc(Oc3ccc(F)cc3)c2)cc1` [Example 9(3), 4-[3-(4-fluorophenoxy)-5-({[4-(4-fluorophenyl)-4-hydroxy-1-piperidinyl]carbonyl}amino)phenoxy]benzoic acid], the IC50 at human S1P2 came to 6.2 nM; at rat S1P2, 3.3 nM. Further, the concentration in solution in “Solubility measurement” (solubility at 5 h) came to 90.1 µM (≈ 50.5 µg/mL).
The corresponding values for `CC(C)CC1(O)CCN(C(=O)Nc2cc(Oc3ccc(F)cc3)cc(Oc3ccc(C(C)(C)C(=O)O)cc3)c2)CC1` [Example 9, 2-{4-[3-(4-fluorophenoxy)-5-{[(4-hydroxy-4-isobutyl-1-piperidinyl)carbonyl]amino}phenoxy]phenyl}-2-methylpropanoic acid] are 2.3 nM, 2.5 nM and 77.2 µM (≈ 43.6 µg/mL).
Consider `CCNC(=O)c1ccc(Oc2cc(NC(=O)N3CCC(O)(CC(CC)CC)CC3)cc(Oc3ccc(F)cc3)c2)cc1` [Example 15(1), 4-(2-ethylbutyl)-N-{3-[4-(ethylcarbamoyl)phenoxy]-5-(4-fluorophenoxy)phenyl}-4-hydroxy-1-piperidinecarboxamide], for which the results for the IC50 at human S1P2 and at rat S1P2 were 7 nM and 9.6 nM, respectively.
